Experimental findings from ChEMBL document CHEMBL4251595, “Green approach for the synthesis of thiophenyl pyrazoles and isoxazoles by adopting 1,3-dipolar cycloaddition methodology and their antimicrobial activity” (2018) are described below.

The source made the active and inactive calls. The calls are words filed in the database; no cut-off is given here.

Holding throughout (assay type): functional
For assay [1], the system named is Staphylococcus aureus. The assay can be described thus: Antimicrobial activity against Staphylococcus aureus assessed as zone of inhibition at 75 ug/well after 24 hrs by agar well diffusion method. Conditions: for zone of inhibition at 75 µg/disc: read-out: DIZ. In general terms: In agar diffusion tests the substance spreads into inoculated agar from a disc or well.

Assay [2] has as its system Pseudomonas aeruginosa. Description: Antimicrobial activity against Pseudomonas aeruginosa assessed as zone of inhibition at 75 ug/well after 24 hrs by agar well diffusion method. Conditions: for zone of inhibition at 75 µg/disc: read-out: DIZ.
The subject of assay [3] is Staphylococcus aureus. The assay can be described thus: Antimicrobial activity against Staphylococcus aureus assessed as zone of inhibition at 50 ug/well after 24 hrs by agar well diffusion method. Conditions: for zone of inhibition at 50 µg/disc: read-out: DIZ.
Assay [4] concerns Bacillus subtilis. The assay can be described thus: Antimicrobial activity against Bacillus subtilis assessed as zone of inhibition at 75 ug/well after 24 hrs by agar well diffusion method. Conditions: for zone of inhibition at 75 µg/disc: read-out: DIZ.
Assay [5] concerns Penicillium chrysogenum. The assay can be described thus: Antifungal activity against Penicillium chrysogenum assessed as zone of inhibition at 75 ug/well after 48 hrs by agar well diffusion method. Conditions: for zone of inhibition at 75 µg/disc: read-out: DIZ.
Assay [6] has as its system Pseudomonas aeruginosa. The assay can be described thus: Antimicrobial activity against Pseudomonas aeruginosa assessed as zone of inhibition at 100 ug/well after 24 hrs by agar well diffusion method. Conditions: for zone of inhibition at 100 µg/disc: read-out: DIZ.
Assay [7] concerns Penicillium chrysogenum. The assay can be described thus: Antifungal activity against Penicillium chrysogenum assessed as zone of inhibition at 50 ug/well after 48 hrs by agar well diffusion method. Conditions: for zone of inhibition at 50 µg/disc: read-out: DIZ.
The subject of assay [8] is Aspergillus niger. Description: Antifungal activity against Aspergillus niger assessed as zone of inhibition at 50 ug/well after 48 hrs by agar well diffusion method. The settings on record: for zone of inhibition at 50 µg/disc: read-out: DIZ.
For assay [9], the system named is Klebsiella pneumoniae. Description: Antimicrobial activity against Klebsiella pneumoniae assessed as zone of inhibition at 75 ug/well after 24 hrs by agar well diffusion method. The settings on record: for zone of inhibition at 75 µg/disc: read-out: DIZ.
Assay [10] concerns Aspergillus niger. Description: Antifungal activity against Aspergillus niger assessed as zone of inhibition at 75 ug/well after 48 hrs by agar well diffusion method. The settings on record: for zone of inhibition at 75 µg/disc: read-out: DIZ.
For assay [11], the system named is Penicillium chrysogenum. Description: Antifungal activity against Penicillium chrysogenum assessed as zone of inhibition at 100 ug/well after 48 hrs by agar well diffusion method. The settings on record: for zone of inhibition at 100 µg/disc: read-out: DIZ.
The subject of assay [12] is Bacillus subtilis. The assay can be described thus: Antimicrobial activity against Bacillus subtilis assessed as zone of inhibition at 100 ug/well after 24 hrs by agar well diffusion method. Conditions: for zone of inhibition at 100 µg/disc: read-out: DIZ.
Assay [13] relates to Bacillus subtilis. The assay can be described thus: Antimicrobial activity against Bacillus subtilis assessed as zone of inhibition at 50 ug/well after 24 hrs by agar well diffusion method. The settings on record: for zone of inhibition at 50 µg/disc: read-out: DIZ.
In assay [14] the test system is Staphylococcus aureus. Description: Antimicrobial activity against Staphylococcus aureus assessed as zone of inhibition at 100 ug/well after 24 hrs by agar well diffusion method. Conditions: for zone of inhibition at 100 µg/disc: read-out: DIZ.
Assay [15] deals with Klebsiella pneumoniae. The assay can be described thus: Antimicrobial activity against Klebsiella pneumoniae assessed as zone of inhibition at 50 ug/well after 24 hrs by agar well diffusion method. Conditions: for zone of inhibition at 50 µg/disc: read-out: DIZ.
Assay [16] deals with Klebsiella pneumoniae. Description: Antimicrobial activity against Klebsiella pneumoniae assessed as zone of inhibition at 100 ug/well after 24 hrs by agar well diffusion method. Conditions: for zone of inhibition at 100 µg/disc: read-out: DIZ.
In assay [17] the test system is Aspergillus niger. Description: Antifungal activity against Aspergillus niger assessed as zone of inhibition at 100 ug/well after 48 hrs by agar well diffusion method. The settings on record: for zone of inhibition at 100 µg/disc: read-out: DIZ.
Assay [18] concerns Pseudomonas aeruginosa. Description: Antimicrobial activity against Pseudomonas aeruginosa assessed as zone of inhibition at 50 ug/well after 24 hrs by agar well diffusion method. The settings on record: for zone of inhibition at 50 µg/disc: read-out: DIZ.

Turning to `O=C(NS(=O)(=O)C1C(c2ccccc2)=NOC1c1ccccc1)c1cccs1` (stereo unspecified), the “diameter of the inhibition zone (DIZ)” value in [1], in assay [2], in assay [3], in assay [5], in assay [6] and in [7] was “inactive” each time. Besides, the “diameter of the inhibition zone (DIZ)” value in assay [8], in assay [9], in assay [10], in assay [11], in [14] and in assay [15] was “inactive” each time. The “diameter of the inhibition zone (DIZ)” value in assay [17] and in assay [18] was “inactive” each time. In assay [4], the zone of inhibition at 75 µg/disc came to 10 mm. The zone of inhibition at 100 µg/disc in assay [12] came out at 13 mm; in assay [16], 9 mm. The zone of inhibition at 50 µg/disc in assay [13] turned out to be 7 mm.

In the case of `Cc1ccc(-c2c(S(=O)(=O)NC(=O)c3ccc(Cl)s3)c(-c3ccccc3)nn2-c2ccccc2)cc1`, the zone of inhibition at 75 µg/disc was 15 mm in [1]; 20 mm in assay [4]; 10 mm in [5]; 17 mm in assay [9]; 19 mm in assay [10]. The “diameter of the inhibition zone (DIZ)” value in assay [2], in assay [7] and in assay [18] was “inactive” each time. In addition, the zone of inhibition at 50 µg/disc in assay [3] turned out to be 12 mm; in assay [8] it was 16 mm; in [13], 18 mm; in [15] it was 15 mm. In addition, the zone of inhibition at 100 µg/disc in assay [6] worked out at 13 mm; in assay [11], 13 mm; in assay [12], 24 mm; in assay [14], 16 mm; in assay [16], 20 mm; in assay [17], 23 mm.

`O=C(NS(=O)(=O)C1C(c2ccccc2)=NN(c2ccccc2)C1c1ccccc1)c1ccc(Cl)s1` (stereo unspecified): the “diameter of the inhibition zone (DIZ)” value in [1], in [2], in [3], in assay [5], in [6] and in assay [7] was “inactive” in each case. Besides, the “diameter of the inhibition zone (DIZ)” value in assay [9], in assay [14], in assay [15] and in assay [18] was “inactive” throughout. For the same compound, the zone of inhibition at 75 µg/disc in assay [4] and in assay [10] was 11 mm throughout. Moreover, the zone of inhibition at 50 µg/disc in assay [8] and in assay [13] was 8 mm each time. The zone of inhibition at 100 µg/disc in assay [11] came out at 9 mm; in assay [12], 15 mm; in [16], 11 mm; in [17], 13 mm.

Regarding `O=C(NS(=O)(=O)/C=C/c1ccccc1)c1ccc(Cl)s1`, the zone of inhibition at 75 µg/disc turned out to be 19 mm in [1]; 14 mm in [2]; 24 mm in assay [4]; 13 mm in assay [5]; 22 mm in assay [9]; 17 mm in [10]. The zone of inhibition at 50 µg/disc is 16 mm in [3]; 10 mm in assay [7]; 15 mm in [8]; 22 mm in assay [13]; 19 mm in assay [15]; 12 mm in [18]. In addition, the zone of inhibition at 100 µg/disc in assay [6] worked out at 17 mm; in [11] it was 17 mm; in assay [12], 27 mm; in assay [14], 21 mm; in [16], 25 mm; in assay [17], 21 mm.

On to `Cc1ccc(C2C(S(=O)(=O)NC(=O)c3ccc(Cl)s3)C(c3ccccc3)=NN2c2ccccc2)cc1` (stereo unspecified), for which the “diameter of the inhibition zone (DIZ)” value in assay [1], in [2], in assay [3], in assay [4], in assay [5] and in [6] was “inactive” throughout. Further, the “diameter of the inhibition zone (DIZ)” value in assay [7], in assay [8], in assay [9], in assay [10], in assay [11] and in [12] was “inactive” in each case. The “diameter of the inhibition zone (DIZ)” value in assay [13], in [14], in [15], in assay [16], in [17] and in [18] was “inactive” in each case.

`O=C(NS(=O)(=O)c1c(-c2ccccc2)noc1-c1ccccc1)c1ccc(Cl)s1`: the zone of inhibition at 75 µg/disc in [1] is 26 mm; in [2] it was 19 mm; in assay [4], 32 mm; in assay [5] it was 19 mm; in assay [9], 29 mm; in assay [10], 24 mm. The zone of inhibition at 50 µg/disc is 23 mm in [3]; 17 mm in assay [7]; 21 mm in [8]; 30 mm in [13]; 26 mm in assay [15]; 17 mm in assay [18]. The zone of inhibition at 100 µg/disc in assay [6] was found to be 21 mm; in assay [11] it was 22 mm; in [12], 35 mm; in [14] it was 28 mm; in assay [16] it was 32 mm; in [17], 28 mm.

Regarding `Cc1ccc(-c2onc(-c3ccccc3)c2S(=O)(=O)NC(=O)c2cccs2)cc1`, the zone of inhibition at 75 µg/disc in assay [1] is 14 mm; in [2], 9 mm; in assay [4] it was 20 mm; in assay [5], 12 mm; in assay [9], 20 mm; in assay [10], 15 mm. Besides, the zone of inhibition at 50 µg/disc in [3] turned out to be 12 mm; in assay [7], 10 mm; in [8] it was 13 mm; in assay [13], 18 mm; in [15] it was 16 mm. In addition, the zone of inhibition at 100 µg/disc in assay [6] was determined as 12 mm; in assay [11] it was 16 mm; in assay [12], 23 mm; in [14] it was 16 mm; in assay [16], 21 mm; in assay [17], 18 mm. Also, the “diameter of the inhibition zone (DIZ)” value in [18] is “inactive”.
